# Where two headings read alike, the source gives them in different places.
# Columns and labels:
# [1] = test system: PD1-ss+10aa/Gaussia Luciferase; test: Dox-Induced PD1-ss-Gluc Assay; assay type: cell-based
# Method in brief: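 Flp-In 293 T-REx cells stably carrying a doxycycline-inducible Gaussia luciferase fused to the PD1 signal sequence plus 10 aa were plated the day before. Compound dilutions in DMSO/media containing doxycycline were then added and incubated at 37 °C, 5% CO2. Data for undefined stereochemistry refer to stereoisomer mixtures.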
# [2] = test system: TNFα-FL/Gaussia Luciferase; test: Dox Induced TNFα-FL-Gluc Assay; assay type: cell-based; conditions: for IC50: 24 hr Dox induction, 293FRT/TO cells, read-out: 24 hr Dox Inducible TNFaFLGluc 293FRT/TO: Mean IC50; for 24 hr Dox Inducible TNFaFLGluc 293FRT/TO: TNF/PD1: ratio of TNFaFLGluc IC50 to PD1ssGluc IC50
# Method in brief: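 Hygromycin/blasticidin-selected Flp-In 293 T-REx cells, TNFα-FL/Gaussia luciferase fusion under T-REx control; overnight plating, then compound in DMSO/media with doxycycline at 37 °C, 5% CO2; stereo-undefined structures tested as mixtures.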
# [3] = test system: HER3-ss+4aa/Gaussia Luciferase; test: Dox-Induced Her3-ss-Gluc Assay; assay type: cell-based
# Method in brief: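 Doxycycline-inducible HER3 signal sequence+4aa/Gaussia luciferase construct, stably integrated in Flp-In 293 T-REx cells; compound dilutions applied with doxycycline at 37° C., 5% CO2.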
# [4] = test system: IL-2-FL/Gaussia Luciferase; test: Dox Induced IL2-FL-Gluc Assay; assay type: cell-based; conditions: for IC50: 24 hr Dox induction, 293FRT/TO cells, read-out: 24 hr Dox Inducible IL2FLGluc 293FRT/TO: Mean IC50; for 24 hr Dox Inducible IL2FLGluc 293FRT/TO: IL2/PD1: ratio of IL2FLGluc IC50 to PD1ssGluc IC50
# Method in brief: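 A hygromycin- and blasticidin-resistant 293 T-REx clone carrying inducible IL-2–Gaussia luciferase (full-length IL-2, residues 1-153) serves as the cell system. After overnight plating, the cells get test compounds together with doxycycline in DMSO/media and are incubated at 37° C, 5% CO2.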
# [5] = test system: multiple myeloma cell line NCI-H929; test: H929 Cell Viability Assay; assay type: cell-based, human; conditions: Homo sapiens, NCI-H929 cells, Celltiter-Glo
# Method in brief: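 A 48-hour compound treatment of cells in 10% FBS RPMI medium was followed by luciferase-based viability quantification.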
# [6] = test system: multiple myeloma cell line U266B1; test: U266 Cell Viability Assay; assay type: cell-based, human; conditions: Homo sapiens, U266B1 cells, Celltiter-Glo
# Method in brief: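 After growth in serum-supplemented RPMI 1640, cells received serially diluted compound in DMSO/media and were kept 48 hours before a CellTiter-Glo luminescence readout.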
# [7] = Liver Microsome Stability Assay (rat); conditions: rat liver microsomes, with NADPH, 1.0 uM compound
# Experimental: (§1) Stability of a compound was assessed in the presence of liver microsomes from various sources—mouse, rat, monkey and human liver microsomes. 1.0 uM compound, 0.4% DMSO in 0.1 M Potassium Phosphate with 1.0 mg/mL liver microsomes, were incubated at 37° C. with or without 1 mM NADPH. The samples were quenched at 0, and 30 minutes.
# [8] = Liver Microsome Stability Assay (mouse); conditions: mouse liver microsomes, with NADPH, 1.0 uM compound
# Experimental: as §1
# [9] = Liver Microsome Stability Assay (human); conditions: human liver microsomes, with NADPH, 1.0 uM compound
# Experimental: as §1
# [10] = Liver Microsome Stability Assay (monkey); conditions: monkey liver microsomes, with NADPH, 1.0 uM compound
# Experimental: as §1
# [11] = 24 hr Dox induction; 293FRT/TO cells; mean; read-out: 24 hr Dox Inducible PD1ssGluc 293FRT/TO: Mean IC50
# [12] = '<=>' given where both are I.A.
# [13] = 24 hr Dox induction; 293FRT/TO cells; mean; read-out: 24 hr Dox Inducible Her3(ss + 4)Gluc 293FRT/TO: Mean IC50
# [14] = 24 hr Dox induction; 293FRT/TO cells; read-out: 24 hr Dox Inducible PD1ssGluc 293FRT/TO: Mean IC50
# [15] = 24 hr Dox induction; 293FRT/TO cells; read-out: 24 hr Dox Inducible Her3(ss + 4)Gluc 293FRT/TO: Mean IC50
Structure (SMILES),"IC50 [1, 11] [nM]",IC50 ([2]; mean) [nM],"24 hr Dox Inducible TNFaFLGluc 293FRT/TO: TNF/PD1 [2, 12]","IC50 [3, 13] [nM]",IC50 ([4]; mean) [nM],"24 hr Dox Inducible IL2FLGluc 293FRT/TO: IL2/PD1 [4, 12]","EC50 ([5]; NCI-H929, 48 h) [nM]","EC50 ([6]; U-266, 48 h) [nM]",Liver Microsome Stability (Multiple Species): Rat - % Remaining after 30 min w/NADPH [7] [%],Liver Microsome Stability (Multiple Species): Mouse - % Remaining after 30 min w/NADPH [8] [%],Liver Microsome Stability (Multiple Species): Human - % Remaining after 30 min w/NADPH [9] [%],Liver Microsome Stability (Multiple Species): Monkey - % Remaining after 30 min w/NADPH [10] [%],"IC50 [1, 14] [nM]",IC50 [2] [nM],24 hr Dox Inducible TNFaFLGluc 293FRT/TO: TNF/PD1 [2],"IC50 [3, 15] [nM]",IC50 [4] [nM],24 hr Dox Inducible IL2FLGluc 293FRT/TO: IL2/PD1 [4],other results
"Cc1ccc(/C=C/c2csc(NC(=O)c3cccn3CC3CCOCC3)n2)nc1F [Compound D3, (E)-N-(4-(2-(6-fluoro-5-methylpyridin-2-yl)vinyl)thiazol-2-yl)-1-((tetrahydro-2H-pyran-4-yl)methyl)-1H-pyrrole-2-carboxamide]",734,> 25000,>34.1,2000,6660,9.1,10200,> 17800,0.26,0.46,0.24,0.09,,,,,,,
"Cc1ccc(S(=O)(=O)N2CCC[C@@H]2c2csc(NC(=O)c3cccn3Cc3ccncc3)n2)cc1 [Compound E14, (R)-1-(pyridin-4-ylmethyl)-N-(4-(1-tosylpyrrolidin-2-yl)thiazol-2-yl)-1H-pyrrole-2-carboxamide]",4240,> 25000,>5.90,20700,6620,1.6,> 25000,> 25000,0.11,0.1,0.2,0.11,,,,,,,
"CC(=O)N1CCC(Oc2ccc(N3CCC[C@@H]3c3csc(NC(=O)c4cccn4Cc4ccnc(F)c4)n3)cc2)CC1 [Compound A62, (R)-N-(4-(1-(4-((1-acetylpiperidin-4-yl)oxy)phenyl)pyrrolidin-2-yl)thiazol-2-yl)-1-((2-fluoropyridin-4-yl)methyl)-1H-pyrrole-2-carboxamide]",,,,,,,373,> 25000,45.1,52.7,34.3,21.4,15,251,16.7,35.7,29.8,2,
"O=C(Nc1nc([C@H]2CCCN2c2ccc(OC3CCN(C(=O)CF)CC3)cc2)cs1)c1cccn1Cc1ccnc(F)c1 [Compound A90, (R)-N-(4-(1-(4-((1-(2-fluoroacetyl)piperidin-4-yl)oxy)phenyl)pyrrolidin-2-yl)thiazol-2-yl)-1-((2-fluoropyridin-4-yl)methyl)-1H-pyrrole-2-carboxamide]",,,,,,,,,39.1,21.7,22.3,1.3,,512,12.4,,82.9,2,"IC50 ([1]; read-out: 24 hr Dox Inducible PD1ssGluc 293FRT/TO: Mean IC50; 24 hr Dox induction; 293FRT/TO cells): 41.5 nM; IC50 ([3]; read-out: 24 hr Dox Inducible Her3(ss + 4)Gluc 293FRT/TO: Mean IC50; 24 hr Dox induction; 293FRT/TO cells): 82.8 nM; EC50 ([5]; 48 hr): 1080 nM; EC50 ([6]; U-266, 48 hr): > 25000 nM"
"NCCOc1ccc(N2CCC[C@@H]2c2csc(NC(=O)c3cccn3Cc3ccnc(F)c3)n2)cc1 [Compound A101, (R)-N-(4-(1-(4-(2-aminoethoxy)phenyl)pyrrolidin-2-yl)thiazol-2-yl)-1-((2-fluoropyridin-4-yl)methyl)-1H-pyrrole-2-carboxamide]",,,,,,,1270,12800,76.5,62.7,2.2,14.5,47.9,379,7.92,68.2,94.3,2,
